Patent US20130310452A1, “ANTIFUNGAL FLAVOURING INGREDIENTS AND COMPOSITIONS” (FIRMENICH SA, priority 2011, published 2013)

Each molecule was assayed on main fungi responsible for beverage and food spoilage (yeast and mould strains) (assay: Growth inhibition of yeast and mould strains in 105 g/L sucrose solution (OD after 21 days)). Details: pH 3.
Assay type: cell-based
Description: The antifungal activity of various flavouring ingredients was evaluated against the following yeast strains: Zygosaccharomyces rouxii (DSM70835), Pichia membranaefaciens (DSM 70369), Dekkera Bruxellensis (DSM70726), Saccharomyces cerevisiae (DSM 70869) and Candida krusei (origin: Leatherhead Food Research) and against the following moulds strains: Byssochlamys nivea, Fusarium solani, Aspergillus fumigatis, Byssochlamys fulva, Aspergillus niger, Talaromyces Harzanium, Penicillium crustosum, Penicillium digitatum, Neosartorya fischeri, Penicillium roquerforti, Fusarium oxysporum.
A 105 g/L solution of sucrose in water at pH 3±0.2 was prepared. Another sucrose solution at the same concentration at pH 5±0.2 was also prepared. The sucrose solutions were autoclaved at 121° C. for 15 minutes and the pH was re-checked to ensure it remained within the range.
Test samples were then prepared in microtiter plates. An amount of 100 μL of sucrose solution prepared above, were mixed with an inoculum of 20 μL of one fungal strain, so as to achieve a microbial level comprised between 10^2 and 10^3 cfu/mL.
The flavouring ingredient or composition was then added to the microtiter plate. Dilutions were prepared in the microtiter plate for each mixture of sucrose solution and inoculum to afford final concentrations of 2000 ppm, 1000 ppm, 500 ppm, 250 ppm and 125 ppm of the ingredient or composition to be tested. One well for each mixture of sucrose solution and inoculum was kept free of flavouring ingredient or composition, to serve as a control.
The microtiter plates were then stored in a standard 25° C. incubator under aerobic conditions.
The optical density (OD) of each sample was measured after 21 days of incubation using a Bio-Tek Synergy™ HT Multi-Mode Microplate Reader (from Labtech International, UK). The wavelength was set to 380 nm for yeast strains and to 500 nm for mould strains. All tests were done in triplicate to ensure statistical relevance of the results.
The following tables indicate the OD measurements obtained when each flavouring ingredient or composition was used to inhibit growth of yeast and mould strains involved at concentration ranging between 0 and 2000 ppm. Measurements corresponding to efficient growth inhibition are indicated by grey cells in the tables below. Results were considered as evidence of efficient growth inhibition when the OD of the growth medium was below 0.2. OD measurements below 0.2 were not considered as sufficient evidence of the antifungal activity of a given flavouring ingredient or composition at a given concentration if OD measurements obtained with a higher concentration of such flavouring ingredient or composition were above 0.2.
`CC(C)CC=C(C=O)c1ccccc1` [5-methyl-2-phenyl-2-hexenal] was tested, and the “number of the main fungi responsible for beverage and food spoilage against which there is a strong antifungal effect” value (“number of the main fungi responsible” for short) was 9.

Same assay, conditions: pH 5
For `CC(C)CC=C(C=O)c1ccccc1` [5-methyl-2-phenyl-2-hexenal], the “number of the main fungi responsible” value was 5.

Same assay, conditions: sucrose solution at pH 3; concentrations of 1000 ppm or less; OD below 0.2 after 21 days at 25° C.; 16 strains tested
`Cc1ccc(C(C)C)c(O)c1` [thymol] was tested, and the “number of the main fungi responsible” value was 4.
With `CC1=CCC(=C(C)C)CC1` [terpinolene] the “number of the main fungi responsible” value was 15.
For `CCCCC(C)C(=O)O` (stereo not drawn) [2-methylhexanoic acid], the “number of the main fungi responsible” value was 15.
In the case of `CCCCCc1ccco1` [2-pentylfuran], the “number of the main fungi responsible” value is reported as 3.
With `CCCc1ccc(O)c(OC)c1` [dihydro eugenol] the “number of the main fungi responsible” value was 15.
In the case of `COc1cc(C)cc(O)c1` [orcinyle, 3-methoxy-5-methylphenol], the “number of the main fungi responsible” value is reported as 2.
In the case of `CC(C)=CCCC(C)=CCCC(C)=CCO` [farnesol], the “number of the main fungi responsible” value is reported as 2.
With `O=C(O)c1ccccc1O` [salicylic acid] the “number of the main fungi responsible” value was 12.
`CC(=O)C=CCCC(C)C` [7-methyl-3-octen-2-one] was tested, and the “number of the main fungi responsible” value was 6.
In the case of `Cc1ccc(C(C)C)cc1O` [carvacrol], the “number of the main fungi responsible” value is reported as 15.
With `C[C@@H]1CC[C@H]2[C@H](C)C(=O)O[C@@H]2C1` [(+)-(3S,3AS,6R,7AR)-perhydro-3,6-dimethyl-benzo[B]furan-2-one] the “number of the main fungi responsible” value was 3.

Same assay, conditions: sucrose solution at pH 5; concentrations of 1000 ppm or less; OD below 0.2 after 21 days at 25° C.; 16 strains tested
`CC1=CCC(=C(C)C)CC1` [terpinolene] was tested, and the “number of the main fungi responsible” value was 7.
For `CCCCC(C)C(=O)O` (stereo not drawn) [2-methylhexanoic acid], the “number of the main fungi responsible” value was 16.
In the case of `CCCCCc1ccco1` [2-pentylfuran], the “number of the main fungi responsible” value is reported as 2.
With `CCCc1ccc(O)c(OC)c1` [dihydro eugenol] the “number of the main fungi responsible” value was 15.
For `O=C(O)c1ccccc1O` [salicylic acid], the “number of the main fungi responsible” value was 14.
In the case of `CC(=O)C=CCCC(C)C` [7-methyl-3-octen-2-one], the “number of the main fungi responsible” value is reported as 11.
`Cc1ccc(C(C)C)cc1O` [carvacrol] was tested, and the “number of the main fungi responsible” value was 14.
In the case of `C[C@@H]1CC[C@H]2[C@H](C)C(=O)O[C@@H]2C1` [(+)-(3S,3AS,6R,7AR)-perhydro-3,6-dimethyl-benzo[B]furan-2-one], the “number of the main fungi responsible” value is reported as 2.
